Measured values reported in EP3851117A1, “INHIBITORS OF INTRACELLULAR BACTERIAL GROWTH AND PERSISTENCE AS ANTIBIOTICS” (Consejo Superior de Investigaciones Científicas (CSIC), priority 2020, dated 2021).
≈ marks a conversion by molar mass, not a printed value. Entries after “also recorded” stand apart in the source; their conditions may differ.

Columns and labels:
[1] = system: S. Typhimurium wild-type bacteria; experiment: Antibiotic susceptibility with MIC strips (E-test) on PCN agar plates with 0.01% YE; format: cell-based; details: for MIC: Salmonella enterica, TYPHIMURIUM; for susceptibility following the switch to acid pH: switch to acid pH (4.6), PBP3SAL expression
From the text: (§1) S. Typhimurium cultures grown in PCN 4.6 were normalized to an optical density at 600 nm (OD600) of 0.1 and diluted 1:10. One hundred twenty microliters of this dilution were spread onto PCN plates using glass beads. The assays were repeated at least in three independent biological replicates.

[2] = system: S. Typhimurium bacteria lacking PBP3 (ΔPBP3 mutant); experiment: as above; format: cell-based; details: Salmonella enterica, pH 4.6, read-out: MIC value
Procedure: as §1, with “Antibiotic susceptibility was determined using MIC strips (MIC Test Strip; Liofilchem) in PCN agar plates containing 0.01% YE at neutral or acid pH 4.6. S.” for “S.”

[3] = system: S. Typhimurium (wild-type); experiment: Spot dilution assay on PCN plates with antibiotic; format: cell-based; details: MEC 5 µg/mL, ATM 0.125 µg/mL
Procedure: (§2) PCN plates for spot dilution assays were prepared by mixing 7.5 ml of sterile PCN medium (2x concentrated) at the desired pH and 7.5 ml of autoclaved agar (30 mg/mL). The mixture was supplemented with 0.01% (w/v) yeast extract (YE). Cultures were grown in PCN pH 4.6 medium overnight and adjusted to same optical density values. These cultures were serially 10-fold diluted. 5 µl of each dilution was spotted onto PCN plates with or without antibiotic added.

[4] = system: S. Typhimurium mutants lacking PBP3SAL; experiment: Spot dilution assay on PCN plates with antibiotic; format: cell-based; details: pH 4.6
Procedure: as §2

[5] = system: intra-phagosomal S. Typhimurium lacking PBP3SAL in RAW 264.7 macrophages; experiment: Macrophage infection and colony-forming unit counting; format: cell-based; details: 10 µg/mL added to infected macrophages; compared with bacteria lacking PBP3
Procedure: The murine macrophage line RAW 264.7 (400319, Cell Lines Service, CLS, https://clsgmbh.de/) was cultured in Dulbecco's modified Eagle's medium (DMEM) with 5% fetal bovine serum (FBS) and 4 mM glutamine in an incubator at 37°C in a 5% CO2 atmosphere. RAW 264.7 macrophages were seeded in 24-well plates (353047, Falcon) at a density of 2x10^5 cells/well and pre-cultured for 24 h before infection. Macrophages were activated with 2.5 ng/ml interferon-γ (315-05, Peprotech) 24 h prior infection. Culture medium was replaced by fresh medium without interferon-γ and infected with S. Typhimurium strains at a multiplicity of infection (MOI) of 10:1 during 10 min. Macrophages were washed with PBS supplemented with 0.5 mM MgCl2 and 0.9 mM CaCl2 (complete PBS) and extracellular non-phagocytosed bacteria were killed by incubation in medium containing gentamicin (100 µg/ml for 1 h, followed by 10 µg/ml for the remaining incubation). If indicated, aztreonam (ATM) (10 µg/mL) was added at 1 hpi. Infected macrophages were lysed at 1 and 8 hpi. Colony-forming units (CFU) were determined after two washes of the culture with complete PBS buffer, lysis with sterile solution containing 1% (w/v) Triton X 100 and 0.1% (w/v) sodium dodecyl sulfate (SDS) in PBS and plating on LB pH 7.0 or LB pH 4.6. The assays were repeated at least in three independent biological replicates.

[6] = system: S. Typhimurium bacteria lacking PBP3SAL; experiment: BALB/c mice challenge, bacterial load in spleen; format: in vivo; details: intraperitoneal, every 24 h
Procedure: (§3) Groups of three 8-week-old female BALB/c mice were inoculated with the following isogenic strains: MD5064 (PBP2SAL::3xFlag PBP3SAL::3xFlag), MD5063 (ΔPBP2, ΔPBP2SAL), MD5544 (ΔPBP2 ΔPBP2SAL pPBP2SAL::PBP2), MD5542 (ΔPBP3, ΔPBP3SAL and ΔPBP3 ΔPBP3SAL pPBP3SAL::PBP3). The doses used were 2x10^3 CFU in 200 µl of sterile PBS. Along four days, mice received intraperitoneally every 24 h a regime consisting in 10 mg mecillinam (MEC) or 2.5 mg aztreonam (ATM) per animal in 200 µl of sterile water. Mice were sacrificed four days post inoculation and spleens homogenized in 5 ml of sterile PBS. Aliquots (100 µl) of 10-fold serial dilutions of the homogenates were cultured in LB pH 4.6 plates to quantify the number of viable S. Typhimurium. To detect PBPs in vivo, spleen extracts from three mice were prepared at 72 hpi as described previously (Dominguez-Bernal, G. et al. Mol Microbiol. 2004; 53: 1437-1449). The protocols used in the study were approved by the Consejería de Medio Ambiente de la Comunidad de Madrid (ref. PROEX 110/19).

[7] = system: S. Typhimurium mutant lacking PBP3; experiment: BALB/c mice challenge, bacterial load in spleen; format: in vivo; details: intraperitoneal, every 24 h
Procedure: as §3

[8] = system: S. Typhimurium wild-type bacteria; experiment: BALB/c mice challenge, bacterial load in spleen; format: in vivo; details: intraperitoneal, every 24 h
Procedure: as §3

[9] = system: S. Typhimurium mutant lacking PBP2SAL; experiment: Spot dilution assay on PCN plates with antibiotic; format: cell-based; details: pH 4.6
Procedure: as §2

[10] = system: S. Typhimurium mutant lacking PBP2; experiment: Spot dilution assay on PCN plates with antibiotic; format: cell-based
Procedure: as §2

[11] = system: S. Typhimurium bacteria lacking PBP2SAL; experiment: BALB/c mice challenge, bacterial load in spleen; format: in vivo; details: intraperitoneal, every 24 h
Procedure: as §3

[12] = system: S. Typhimurium mutant lacking PBP2; experiment: BALB/c mice challenge, bacterial load in spleen; format: in vivo; details: intraperitoneal, every 24 h
Procedure: as §3

[13] = pH 4.6, PCN-0.01% yeast extract

C[C@H]1[C@H](NC(=O)/C(=N\OC(C)(C)C(=O)O)c2csc(N)n2)C(=O)N1S(=O)(=O)O [ATM, aztreonam]
MIC ([1]; pH 4.6): 0.125 µg/mL (≈ 0.287 µM)
MIC ([1]; pH 7.4): < 0.016 µg/mL
MIC [2]: 0.75 µg/mL (≈ 1.72 µM)
susceptibility (bacterial growth) [3, 13]: not at pH 4.6; also recorded: resistant
susceptibility (bacterial growth) ([3]; pH 7.4): inhibit bacterial growth; also recorded: susceptible
antimicrobial activity [4]: showed antimicrobial activity
susceptibility of intra-phagosomal bacteria [5]: more susceptible
bacterial loads [6]: significant decrease of bacterial loads
effect on bacterial loads [7]: lesser effect
load of bacteria in spleen [8]: did not result in a statistically significant decrease

CC1(C)S[C@@H]2[C@H](/N=C/N3CCCCCC3)C(=O)N2[C@H]1C(=O)O [MEC, mecillinam]
susceptibility (bacterial growth) [3, 13]: not at pH 4.6
susceptibility (bacterial growth) ([3]; pH 7.4): inhibit bacterial growth
susceptibility [9]: does not alter susceptibility
susceptibility ([10]; pH 4.6): does not alter susceptibility
susceptibility ([10]; pH 7.4): resistant
bacterial loads [11]: significant decrease of bacterial loads
effect on bacterial loads [12]: lesser effect
load of bacteria in spleen [8]: did not result in a statistically significant decrease; also recorded: slightly effect of reduced viability

CO/N=C(\C(=O)N[C@@H]1C(=O)N2C(C(=O)O)=C(COC(C)=O)CS[C@H]12)c1csc(N)n1 [cefotaxime]
susceptibility following the switch to acid pH [1]: decreased susceptibility

CC(C)(O/N=C(\C(=O)N[C@@H]1C(=O)N2C(C(=O)[O-])=C(C[n+]3ccccc3)CS[C@H]12)c1csc(N)n1)C(=O)O [ceftazidime]
susceptibility following the switch to acid pH [1]: decreased susceptibility

CO/N=C(\C(=O)N[C@@H]1C(=O)N2C(C(=O)O)=C(COC(N)=O)CS[C@H]12)c1ccco1 [cefuroxime]
susceptibility following the switch to acid pH [1]: decreased susceptibility

CC(=O)OCC1=C(C(=O)O)N2C(=O)[C@@H](NC(=O)Cc3cccs3)[C@H]2SC1 [cephalotin]
susceptibility following the switch to acid pH [1]: decreased susceptibility
